Test results: US11866438B2, “Compositions, uses and methods for making them” (Pimera, Inc., priority 2015, dated 2024)
Where two headings read alike, the source gives them in different places.

Assays:
Format in all cases: cell-based
MBA-MB-231 = assay: Alamar Blue cell proliferation inhibition, MBA-MB-231 (MM231); conditions: Alamar Blue assay, 96 h incubation
Procedure: (§1) Inhibitory activity on cell proliferation of representative compounds of the invention was determined using an Alamar Blue cell viability assay as described hereafter.
(§2) 3000 cancer cells in 100 uL of cell culture media were plated in each well of a 96-well clear bottom, black wall cell culture-pretreated plate.
(§3) The next day compounds are serially diluted (3-fold in cell culture media) across a 96-well polypropylene mother plate from row A to row F, to yield 6 concentrations (10 uM, 3.3 uM, 1.1 uM, 370 nM, 124 nM and 41 nM) for each test compound. Rows G and H contain only DMSO.
(§4) Once titrations are made, the media in plates with cells were disposed and 100 μL of drug dilutions are transferred to plates with cells. After a ninety six-hour incubation at 37° C., 10 uL of resazurin solution from Alamar Blue Cell Viability kit (Invitrogen, Carlsbad, CA) was added to the media and cells were incubated at 37° C. for three more hours. At the end of this incubation the production of resofurin was measured using Spectrmax M2 microplate reader (Molecular Devices, Sunnyvale, CA)

SK-BR-3 = assay: Alamar Blue cell proliferation inhibition, SK-BR-3; conditions: Homo sapiens, Alamar Blue assay, 96 h incubation
Procedure: as §1, §2, §3, §4

SKM-1_1 = assay: Alamar Blue cell proliferation inhibition, SKM-1_1; conditions: Alamar Blue assay, 96 h incubation, Table 3; read-out: cell proliferation inhibition, Cell line SKM-1_1
Procedure: as §1, §2, §3, §4

P12-ICHIKAWA = assay: Alamar Blue cell proliferation inhibition, P12-ICHIKAWA; conditions: Homo sapiens, Alamar Blue assay, 96 h incubation, Table 3, read-out: cell proliferation inhibition, Cell line P12-ICHIKAWA
Procedure: as §1, §2, §3, §4

THP-1 = assay: Alamar Blue cell proliferation inhibition, THP-1; conditions: Homo sapiens, Alamar Blue assay, 96 h incubation, Table 3, read-out: cell proliferation inhibition, Cell line THP-1
Procedure: as §1, §2, §3, §4

KG-1 = assay: Alamar Blue cell proliferation inhibition, KG-1; conditions: Homo sapiens, Alamar Blue assay, 96 h incubation, Table 3, read-out: cell proliferation inhibition, Cell line KG-1
Procedure: as §1, §2, §3, §4

NB-4-1 = assay: Alamar Blue cell proliferation inhibition, NB-4-1; conditions: Alamar Blue assay, 96 h incubation, Table 3; read-out: cell proliferation inhibition, Cell line NB-4-1
Procedure: as §1, §2, §3, §4

ML-2 = assay: Alamar Blue cell proliferation inhibition, ML-2; conditions: Homo sapiens, Alamar Blue assay, 96 h incubation, Table 3, read-out: cell proliferation inhibition, Cell line ML-2
Procedure: as §1, §2, §3, §4

[1] = Table 2, read-out: cell proliferation inhibition, Cell Line MBA-MB-231
[2] = Table 2, read-out: cell proliferation inhibition, Cell Line SK-BR-3
[3] = Table 3, read-out: cell proliferation inhibition, Cell line MM231
[4] = Table 3, read-out: cell proliferation inhibition, Cell line SK-BR-3

| IC50 (SK-BR-3; [2]) [µM] | SMILES | IC50 (MBA-MB-231; [1]) [µM] | further results |
| --- | --- | --- | --- |
| 1 to 5 | c1ccc2c(c1)nc1c(NCCN3CCCC3)nc3cncnc3n12 [Compound 26] | 1 to 5 | – |
| > 10 | CN(C)CCNC(=O)c1cc2cc3cc(Cl)ccc3nc2n2ccnc12 [Compound 61] | > 10 | – |
| > 10 | C[C@@H]1CN(C(=O)c2cc3cc4cc(Cl)ccc4nc3n3ccnc23)C[C@H](C)N1 [Compound 63] | > 10 | – |
| 1 to 5 | C[C@@H]1CN(c2nc3cncnc3n3c2nc2ccccc23)C[C@H](C)N1 [Compound 28] | 1 to 5 | – |
| 1 to 5 | CN(C)CCNc1nc2nccnc2n2c1nc1ccccc12 [Compound 34] | 1 to 5 | – |
| – | CN1CCCN(C(=O)c2cc3cc4ccccc4nc3n3ccnc23)CC1 [Compound 55] | – | IC50 (MBA-MB-231; [3]): > 10 µM; IC50 (SK-BR-3; [4]): > 10 µM |
| 1 to 5 | Cc1ccc2nc(N3CCCN(C)CC3)c3nc4ccccc4n3c2n1 [Compound 15] | 1 to 5 | – |
| > 10 | CN1CCCN(C(=O)c2cc3cc4cc(Cl)ccc4nc3n3ccnc23)CC1 [Compound 60] | > 10 | – |
| 1 to 5 | Cc1ccc2nc(NCCN(C)C)c3nc4ccccc4n3c2n1 [Compound 13] | 1 to 5 | – |
| – | CN(C)CCNC(=O)c1cc2cc3ccccc3nc2n2ccnc12 [Compound 52] | – | IC50 (SKM-1_1): < 1 µM; IC50 (P12-ICHIKAWA): 1 to 5 µM; IC50 (THP-1): 1 to 5 µM; IC50 (KG-1): 1 to 5 µM; IC50 (NB-4-1): 1 to 5 µM; IC50 (ML-2): 1 to 5 µM |
| – | O=c1[nH]c2ccc(NCCN3CCCC3)nc2n2c1nc1ccccc12 [Compound 39] | – | IC50 (MBA-MB-231; [3]): 1 to 5 µM; IC50 (SK-BR-3; [4]): 1 to 5 µM |
| > 10 | O=C(NCCN1CCCC1)c1cc2cc3cc(Cl)ccc3nc2n2ccnc12 [Compound 62] | > 10 | – |
| 1 to 5 | CN1CCCN(c2nc3cc(Cl)cnc3n3c2nc2ccccc23)CC1 [Compound 22] | 5 to 10 | – |
| 1 to 5 | Cc1ccc2nc(NCCN3CCCC3)c3nc4ccccc4n3c2n1 [Compound 12] | 1 to 5 | – |
| 1 to 5 | CN1CCCN(c2nc3cncnc3n3c2nc2ccccc23)CC1 [Compound 29] | 1 to 5 | – |
| – | CN1CCCN(c2ccc3[nH]c(=O)c4nc5ccccc5n4c3n2)CC1 [Compound 41, 2-(4-Methyl-[1,4]diazepan-1-yl)-5H-1,5,7,11b-tetraaza-benzo[c]fluoren-6-one] | – | IC50 (SK-BR-3; [4]): < 1 µM |
| 1 to 5 | C[C@@H]1CN(c2nc3nccnc3n3c2nc2ccccc23)C[C@H](C)N1 [Compound 35] | 1 to 5 | – |
| – | CN(C)CCNc1nc2cccnc2n2c1nc1ccccc12 [Compound 5] | – | IC50 (SKM-1_1): 1 to 5 µM; IC50 (P12-ICHIKAWA): 1 to 5 µM; IC50 (THP-1): 1 to 5 µM; IC50 (KG-1): 1 to 5 µM; IC50 (NB-4-1): 1 to 5 µM; IC50 (ML-2): 1 to 5 µM |
| 1 to 5 | Clc1cnc2c(c1)nc(NCCN1CCCC1)c1nc3ccccc3n12 [Compound 19] | 1 to 5 | – |
| 1 to 5 | CN(C)CCNc1nc2cncnc2n2c1nc1ccccc12 [Compound 27] | 1 to 5 | – |
| 1 to 5 | COc1ccc2nc3c(cc(C(=O)NCCN(C)C)c4nccn43)cc2c1 [Compound 57] | 1 to 5 | – |
| 1 to 5 | CN(C)CCNc1nc2cc(Cl)cnc2n2c1nc1ccccc12 [Compound 20] | 1 to 5 | – |
| > 10 | C[C@@H]1CN(c2nc3cc(Cl)cnc3n3c2nc2ccccc23)C[C@H](C)N1 [Compound 21] | > 10 | – |
| 1 to 5 | Cc1ccc2nc(N3C[C@@H](C)N[C@@H](C)C3)c3nc4ccccc4n3c2n1 [Compound 14] | 1 to 5 | – |
| 1 to 5 | CN1CCCN(c2nc3nccnc3n3c2nc2ccccc23)CC1 [Compound 36] | 1 to 5 | – |
| > 10 | COc1ccc2nc3c(cc(C(=O)N4CCCN(C)CC4)c4nccn43)cc2c1 [Compound 56] | > 10 | – |
